Measurements: ChEMBL document CHEMBL1201862, “PubChem BioAssay data set” (2004)
Activity calls are given as the source filed them.

How the values were obtained:
[1] = CTGF mRNA reduction in DLD1 cells – cell-based, DLD1 colon cancer, RT-qPCR, cherry-pick, dose response (AID 1053122); assay type: functional; conditions: Cancer cell lines
[2] = molecular target: DNA (cytosine-5)-methyltransferase 1 (Homo sapiens, UniProt P26358); experiment: inhibition of DNA methylation by DNMT1 – biochemical, fluorescent molecular beacon, confirmation (AID 602386); assay type: functional
[3] = molecular target: T1, Small ubiquitin-related modifier 2 (Homo sapiens, UniProt P61956); experiment: SUMO2 binding disruption by SUMO1 hits – biochemical, FRET, human SUMO2, uHTS hits, selectivity assay for SUMO1 interaction inhibitor project, dose response (AID 624384); assay type: functional; conditions: read-out: IC50_Mean
[4] = molecular target: T2, Fatty acid synthase (Homo sapiens, UniProt P49327); experiment: inhibition of human FAS-TE enzyme activity – biochemical, endpoint fluorescence intensity, uHTS hits, dose response (AID 624327); assay type: functional;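 note: fluorescence from hydrolysis of an O-methyl fluorescein acyl ester substrate by the enzyme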
[5] = molecular target: T3, Small ubiquitin-related modifier 1 (Homo sapiens, UniProt P63165); experiment: SUMO1 protein-protein binding blockers, potency – biochemical, FRET, dose response (AID 624383); assay type: functional; conditions: read-out: IC50_Mean
[6] = blockers of CRF-binding protein–CRF-R2 complex – cell-based, uHTS hits, 384-well, dose response (AID 651639); assay type: functional, Homo sapiens; conditions: read-out: IC50_Mean
[7] = molecular target: T4, Corticotropin-releasing factor receptor 2/Corticotropin-releasing factor-binding protein (Homo sapiens, UniProt P24387+Q13324); experiment: Dose Response confirmation of uHTS hits for small molecule antagonists of the CRF-binding protein and CRF-R2 receptor complex.; assay type: functional; conditions: read-out: IC50_Mean
T4 sequence (Q13324 whole entry): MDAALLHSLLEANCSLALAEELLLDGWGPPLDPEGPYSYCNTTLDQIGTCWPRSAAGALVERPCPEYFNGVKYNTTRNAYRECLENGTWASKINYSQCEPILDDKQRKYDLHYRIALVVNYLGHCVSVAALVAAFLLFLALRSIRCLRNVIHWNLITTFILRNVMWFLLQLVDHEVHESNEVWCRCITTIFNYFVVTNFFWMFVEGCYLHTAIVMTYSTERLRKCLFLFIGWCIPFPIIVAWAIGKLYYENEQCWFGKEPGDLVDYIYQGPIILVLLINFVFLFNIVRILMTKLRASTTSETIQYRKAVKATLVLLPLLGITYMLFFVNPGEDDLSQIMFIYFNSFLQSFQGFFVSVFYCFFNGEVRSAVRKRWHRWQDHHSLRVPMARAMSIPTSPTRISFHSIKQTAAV
T4 sequence (P24387 whole entry): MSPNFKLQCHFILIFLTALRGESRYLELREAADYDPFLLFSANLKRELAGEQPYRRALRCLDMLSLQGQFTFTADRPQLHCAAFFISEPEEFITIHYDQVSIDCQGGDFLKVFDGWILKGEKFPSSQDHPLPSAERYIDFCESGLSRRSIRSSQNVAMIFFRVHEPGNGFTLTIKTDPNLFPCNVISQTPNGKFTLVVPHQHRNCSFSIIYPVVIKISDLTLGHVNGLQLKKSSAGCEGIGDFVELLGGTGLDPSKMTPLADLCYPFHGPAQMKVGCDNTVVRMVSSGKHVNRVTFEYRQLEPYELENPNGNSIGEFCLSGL

[8] = molecular target: T3, Small ubiquitin-related modifier 1; experiment: SUMO1 protein interaction blockers, potency – biochemical, fluorescence polarization, uHTS hits, dose response (AID 624382); assay type: functional; conditions: read-out: IC50_Mean
[9] = molecular target: T4, Corticotropin-releasing factor receptor 2/Corticotropin-releasing factor-binding protein; experiment: activators of CRF receptor 2 with binding protein – uHTS hits, confirmation (AID 602473); assay type: functional; conditions: read-out: EC50_Mean
[10] = molecular target: T2, Fatty acid synthase; experiment: inhibition of human FAS-TE enzyme activity – biochemical, kinetic fluorescence intensity, dose response (AID 624326); assay type: functional;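 note: rate of fluorescence rise from hydrolysis of a fluorogenic O-methyl fluorescein ester substrate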
[11] = molecular target: NAD-dependent protein deacylase sirtuin-5, mitochondrial (Homo sapiens, UniProt Q9NXA8); experiment: sirtuin-5 deacylation blockers, concentration series – biochemical, fluorescence imaging, cherry-pick, set 5, dose response (AID 720591);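 note: desuccinylation of succinyl peptide AMC substrate read as fluorescence after trypsin release; potency of inhibitors that lower fluorescence and may act on trypsin instead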
[12] = molecular target: T1, Small ubiquitin-related modifier 2; experiment: disruption of SUMO2 interaction with SIM peptide – biochemical, fluorescence polarization, uHTS hits, selectivity assay for SUMO1 interaction inhibitor project, dose response (AID 624385); assay type: functional; conditions: read-out: IC50_Mean
[13] = blockers of bursicon-stimulated LGR2 cAMP reporter – cell-based, HEK293, CRE-luciferase reporter, cherry pick, set 2, dose response (AID 743343); assay type: functional;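 note: transfected cells were stimulated with diluted bursicon conditioned medium after compound addition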
[14] = IGROV1 cell killing – plate reader, dry powder samples, PAX8 inhibitor project, dose response (AID 743043); assay type: functional, cell-based; conditions: IGROV-1
[15] = P. falciparum Dd2 growth inhibitors, dose response, SYBR Green, cherry-picked samples (AID 1159567); assay type: functional, cell-based
[16] = viability loss in HEK293 cells – cell-based, plate reader, cherry-picked samples, cytotoxicity control, dose response (AID 743446); assay type: functional
[17] = Dd2 malaria parasite growth inhibition potency – SYBR Green, dry powder samples, dose response (AID 1159566); assay type: functional, cell-based;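 note: potency for growth inhibition with lower SYBR green DNA signal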
[18] = A549 cell cytotoxicity, dose response, cytotoxicity control, plate reader, cherry-pick, antagonist series (AID 743412); assay type: functional, cell-based
[19] = molecular target: Paired box protein Pax-8 (Homo sapiens, UniProt Q06710); experiment: PAX8 transcriptional activity inhibition in RMG-I – RMG-I cells, luciferase, cherry-pick, dose response (AID 687027); assay type: functional, cell-based;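 note: luciferase reporter driven by Pax8 target thyroperoxidase promoter measured by SteadyGlo luminescence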
[20] = growth inhibition of yeast DHODH-expressing 3D7 parasites – SYBR Green, dry powder samples, dose response (AID 1159570); assay type: functional, cell-based;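 note: parasite growth measured after 72 hours of compound exposure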
[21] = OVCAR8 cell viability loss – plate reader, dry powder samples, PAX8 project, dose response (AID 743197); assay type: functional, cell-based; conditions: OVCAR-8
[22] = toxicity toward HepG2 liver cells – cell-based, plate reader, cherry-pick, antagonist series, cytotoxicity control, dose response (AID 743416); assay type: functional
[23] = blockade of melanocortin 4 receptor signaling – cell-based, plate reader, cherry pick, counter-screen for LGR2 antagonist project, dose response (AID 743444); assay type: functional;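 note: transfected HEK 293 cells stimulated with alpha-MSH peptide; potency of inhibitors of the alpha-MSH evoked signal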
[24] = toxicity toward immortalized ovarian surface epithelium – cell-based, plate reader, dry powder samples, cytotoxicity control for PAX8 inhibitor project, dose response (AID 743045); assay type: functional
[25] = toxicity to human HepG2 hepatoma cells – cell-based, plate reader, dry powder samples, cytotoxicity control, dose response (AID 1159569); assay type: functional;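 note: inhibitor potency with signal falling toward the positive control level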
[26] = OVCAR-3 cell viability loss – plate reader, dry powder samples, PAX8 inhibitor project, dose response (AID 743044); assay type: functional, cell-based
[27] = growth inhibition of PfATP4-mutant resistant parasites – NITD609-resistant line, SYBR Green, dry powder, dose response (AID 1159571); assay type: functional, cell-based;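 note: parasites synchronized at ring stage by sorbitol before testing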
[28] = viability loss in CEM21 cells – cell-based, plate reader, dry powder, cytotoxicity control, dose response (AID 687026); assay type: functional
[29] = molecular target: NS3 (Hepatitis C virus, UniProt A3EZJ3); experiment: NS3h DNA-binding inhibition IC50 – biochemical, fluorescence polarization, ChemBridge library, dose response (AID 743264)
[30] = viability loss in MITF-independent A375 cells – cell-based, CellTiter-Glo luminescence, dry powder, set 2, counter-screen for MITF inhibitor project, dose response (AID 624489); assay type: functional; conditions: A-375;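 note: actives are compounds lowering A375 viability meaning general cytotoxicity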
[31] = cytotoxicity in MITF-independent A375 cells – cell-based, CellTiter-Glo luminescence, dry powder, set 4, counter-screen for MITF inhibitor project, dose response (AID 624364); assay type: functional; conditions: A-375;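 note: A375 melanoma cells are MITF independent so this is a counter screen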

T1 sequence (P61956 whole entry): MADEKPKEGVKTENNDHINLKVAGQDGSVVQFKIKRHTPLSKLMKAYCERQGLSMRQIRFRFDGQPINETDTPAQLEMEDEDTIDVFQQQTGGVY
T3 sequence (P63165 whole entry): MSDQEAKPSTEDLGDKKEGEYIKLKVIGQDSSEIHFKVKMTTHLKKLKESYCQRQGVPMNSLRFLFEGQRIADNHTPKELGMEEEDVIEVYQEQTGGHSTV
T2 sequence (P49327 whole entry): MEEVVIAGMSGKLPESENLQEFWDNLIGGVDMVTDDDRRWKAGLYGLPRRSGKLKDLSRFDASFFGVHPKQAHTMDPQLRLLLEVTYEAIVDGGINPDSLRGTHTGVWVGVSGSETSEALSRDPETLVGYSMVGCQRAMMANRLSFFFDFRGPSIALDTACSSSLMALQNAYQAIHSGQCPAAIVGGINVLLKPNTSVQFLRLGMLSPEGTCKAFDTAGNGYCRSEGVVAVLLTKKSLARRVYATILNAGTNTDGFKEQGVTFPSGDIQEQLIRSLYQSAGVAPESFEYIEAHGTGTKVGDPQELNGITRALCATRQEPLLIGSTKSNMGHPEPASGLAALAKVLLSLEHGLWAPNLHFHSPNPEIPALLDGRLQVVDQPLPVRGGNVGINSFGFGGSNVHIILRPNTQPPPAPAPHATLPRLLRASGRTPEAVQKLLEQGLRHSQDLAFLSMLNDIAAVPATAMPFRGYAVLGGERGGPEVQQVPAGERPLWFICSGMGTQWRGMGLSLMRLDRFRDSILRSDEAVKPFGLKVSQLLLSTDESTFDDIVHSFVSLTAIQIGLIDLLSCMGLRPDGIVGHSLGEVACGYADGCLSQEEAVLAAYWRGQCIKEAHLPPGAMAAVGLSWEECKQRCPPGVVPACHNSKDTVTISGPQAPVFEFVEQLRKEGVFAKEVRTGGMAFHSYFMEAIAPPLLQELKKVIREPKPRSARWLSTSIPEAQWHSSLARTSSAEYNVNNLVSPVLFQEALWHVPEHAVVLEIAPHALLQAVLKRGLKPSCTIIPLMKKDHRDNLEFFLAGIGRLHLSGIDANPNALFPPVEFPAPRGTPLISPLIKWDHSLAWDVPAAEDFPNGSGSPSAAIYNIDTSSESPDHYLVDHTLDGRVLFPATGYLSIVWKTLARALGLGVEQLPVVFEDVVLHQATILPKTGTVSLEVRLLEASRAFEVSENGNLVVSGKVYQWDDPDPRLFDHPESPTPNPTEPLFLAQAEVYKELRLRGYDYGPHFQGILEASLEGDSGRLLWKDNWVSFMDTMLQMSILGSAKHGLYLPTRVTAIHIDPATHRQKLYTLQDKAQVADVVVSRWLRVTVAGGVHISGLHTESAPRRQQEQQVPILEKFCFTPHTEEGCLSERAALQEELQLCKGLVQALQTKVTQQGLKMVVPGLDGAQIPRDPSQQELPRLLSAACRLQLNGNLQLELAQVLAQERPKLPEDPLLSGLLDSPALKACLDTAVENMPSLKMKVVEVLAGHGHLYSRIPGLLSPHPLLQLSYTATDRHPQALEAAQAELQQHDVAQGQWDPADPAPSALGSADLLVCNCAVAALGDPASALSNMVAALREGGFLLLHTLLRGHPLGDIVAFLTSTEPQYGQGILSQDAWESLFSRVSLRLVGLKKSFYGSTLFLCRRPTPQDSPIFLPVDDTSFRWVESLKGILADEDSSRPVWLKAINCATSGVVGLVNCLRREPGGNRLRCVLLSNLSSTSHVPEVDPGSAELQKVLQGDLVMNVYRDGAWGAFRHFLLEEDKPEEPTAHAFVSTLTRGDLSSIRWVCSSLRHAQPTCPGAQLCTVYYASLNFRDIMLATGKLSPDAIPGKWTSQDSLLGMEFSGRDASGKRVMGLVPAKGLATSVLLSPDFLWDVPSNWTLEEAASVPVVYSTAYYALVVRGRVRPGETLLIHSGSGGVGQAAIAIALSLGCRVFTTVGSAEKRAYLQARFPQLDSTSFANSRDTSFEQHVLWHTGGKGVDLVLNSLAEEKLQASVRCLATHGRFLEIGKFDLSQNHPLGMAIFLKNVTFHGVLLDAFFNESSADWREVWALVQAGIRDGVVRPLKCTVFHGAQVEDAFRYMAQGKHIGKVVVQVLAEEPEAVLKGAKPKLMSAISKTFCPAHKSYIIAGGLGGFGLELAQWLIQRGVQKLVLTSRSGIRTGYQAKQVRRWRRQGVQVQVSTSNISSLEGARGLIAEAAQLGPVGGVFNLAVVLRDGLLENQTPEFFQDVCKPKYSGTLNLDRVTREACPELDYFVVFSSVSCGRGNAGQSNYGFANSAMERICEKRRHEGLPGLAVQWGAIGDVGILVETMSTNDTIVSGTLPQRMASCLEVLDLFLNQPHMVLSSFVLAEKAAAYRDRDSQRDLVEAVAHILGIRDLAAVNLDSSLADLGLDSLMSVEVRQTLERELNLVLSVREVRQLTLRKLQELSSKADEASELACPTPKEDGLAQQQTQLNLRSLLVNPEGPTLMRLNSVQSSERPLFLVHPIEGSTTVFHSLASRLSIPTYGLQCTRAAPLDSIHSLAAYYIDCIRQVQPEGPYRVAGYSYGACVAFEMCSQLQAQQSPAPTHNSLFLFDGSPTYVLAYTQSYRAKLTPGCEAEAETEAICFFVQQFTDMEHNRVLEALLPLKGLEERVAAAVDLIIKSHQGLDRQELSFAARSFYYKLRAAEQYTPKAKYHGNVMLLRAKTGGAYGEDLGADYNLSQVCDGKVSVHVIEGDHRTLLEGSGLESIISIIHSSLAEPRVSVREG
Sequence of Paired box protein Pax-8 (Q06710 whole entry): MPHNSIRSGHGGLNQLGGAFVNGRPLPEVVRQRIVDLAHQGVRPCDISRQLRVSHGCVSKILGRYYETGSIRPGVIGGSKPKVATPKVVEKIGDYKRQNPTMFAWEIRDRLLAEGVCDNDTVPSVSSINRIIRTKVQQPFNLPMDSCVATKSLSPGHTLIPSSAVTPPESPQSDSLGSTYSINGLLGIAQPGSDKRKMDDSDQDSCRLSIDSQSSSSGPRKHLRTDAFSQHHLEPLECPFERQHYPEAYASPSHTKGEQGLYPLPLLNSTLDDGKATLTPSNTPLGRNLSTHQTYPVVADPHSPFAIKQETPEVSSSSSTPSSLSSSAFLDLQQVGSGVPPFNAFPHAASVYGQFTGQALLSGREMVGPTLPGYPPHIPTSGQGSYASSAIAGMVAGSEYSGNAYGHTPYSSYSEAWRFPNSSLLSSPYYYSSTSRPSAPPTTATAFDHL
Sequence of NS3 (A3EZJ3 whole entry): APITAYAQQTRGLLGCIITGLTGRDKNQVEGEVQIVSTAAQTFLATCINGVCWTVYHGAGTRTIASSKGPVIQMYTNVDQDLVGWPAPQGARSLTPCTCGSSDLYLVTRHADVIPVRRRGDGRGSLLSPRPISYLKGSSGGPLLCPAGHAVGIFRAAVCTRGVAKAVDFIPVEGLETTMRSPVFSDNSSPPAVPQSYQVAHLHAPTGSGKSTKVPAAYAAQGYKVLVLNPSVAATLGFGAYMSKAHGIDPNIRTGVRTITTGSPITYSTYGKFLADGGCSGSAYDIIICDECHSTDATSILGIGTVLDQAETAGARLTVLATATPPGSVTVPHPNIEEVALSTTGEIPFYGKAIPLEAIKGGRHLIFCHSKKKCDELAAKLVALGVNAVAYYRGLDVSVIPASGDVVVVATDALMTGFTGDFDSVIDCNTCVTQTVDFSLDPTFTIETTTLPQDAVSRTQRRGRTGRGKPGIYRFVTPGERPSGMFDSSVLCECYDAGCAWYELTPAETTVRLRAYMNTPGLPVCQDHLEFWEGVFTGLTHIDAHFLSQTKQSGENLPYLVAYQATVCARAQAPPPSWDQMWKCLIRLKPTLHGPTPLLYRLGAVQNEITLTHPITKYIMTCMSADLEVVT
Sequence of NAD-dependent protein deacylase sirtuin-5, mitochondrial (Q9NXA8 whole entry): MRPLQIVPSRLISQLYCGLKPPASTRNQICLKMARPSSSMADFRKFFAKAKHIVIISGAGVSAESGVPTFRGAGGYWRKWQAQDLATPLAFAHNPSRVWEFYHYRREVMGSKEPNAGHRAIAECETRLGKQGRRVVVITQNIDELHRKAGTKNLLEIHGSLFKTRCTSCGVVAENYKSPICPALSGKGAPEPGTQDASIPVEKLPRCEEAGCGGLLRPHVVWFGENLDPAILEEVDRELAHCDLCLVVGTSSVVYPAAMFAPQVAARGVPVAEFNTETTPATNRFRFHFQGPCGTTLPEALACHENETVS

For `C[C@@H]1C/C=C/C[C@@H](c2cccc(Cl)c2)NC(=O)[C@H](Cc2ccccc2)N(C)C(=O)c2ccccc2O1.C[C@@H]1C/C=C\C[C@@H](c2cccc(Cl)c2)NC(=O)[C@H](Cc2ccccc2)N(C)C(=O)c2ccccc2O1`, the AC50 [1] was 0.492 µM (active).

In the case of `COc1cc(CCc2ccccc2)c(C(=O)O)c(O)c1C/C=C(/C)CCC=C(C)C`, the IC50 [2] is reported as 3.5 µM (active), the IC50 [3] is reported as 15.5 µM (active) and the IC50 [4] is reported as 8.25 µM (active). The IC50 [5] was 14.4 µM (active), the IC50 [6] was 3.79 µM (active) and the IC50 [7] was < 0.368 µM (active). For the same compound, the IC50 [8] was 17.8 µM (active), the EC50 [9] was > 53 µM (inactive) and the IC50 [10] was 8.42 µM (active). The AC50 [11] was 15.7 µM (active) and the IC50 [12] was 28.8 µM (inactive).

For `O=C(C1CC1)N1C[C@@H]2N[C@H](C1)[C@@H]2c1ccc(-c2cccc(F)c2)cc1`, the AC50 [13] was 12.5 µM (active), the AC50 [14] was 26.7 µM (active) and the AC50 [15] was 2.2 µM (active). For the same compound, the AC50 [16] was 28.1 µM (active), the AC50 [17] was 0.778 µM (active) and the AC50 [18] was 3.9 µM (active). The AC50 [19] was 6.38 µM (active), the AC50 [20] was 0.9 µM (active) and the AC50 [21] was 21.2 µM (active). The AC50 [22] was 19.6 µM (active), the AC50 [23] was 6.56 µM (active) and the AC50 [24] was 21.1 µM (active). For the same compound, the AC50 [25] was 23.2 µM (active), the AC50 [26] was 27 µM (active) and the AC50 [27] was 1.04 µM (active).

For `Cc1ccc(C)n1-c1ccc(C(=O)O)c(O)c1`, the AC50 [28] was > 70 µM (inactive) and the IC50 [29] was 1.85 µM (inactive).

With `C=CCNC1=C(N2CCOCC2)C(=O)c2ccccc2C1=O` the AC50 [30] was 9.04 µM (active) and the AC50 [31] was 34.1 µM (active).
